Experimental data reported in paper PMC6321291, “Synthesis, Biological Evaluation and Docking Studies of Benzoxazoles Derived from Thymoquinone” (Molecules, 2018).
≈ marks a conversion by molar mass, not a printed value. Where two headings read alike, the source gives them in different places. One block for each compound: values may come before it.

Legend:
[1] = system: Candida albicans ATCC 10231; experiment: Micro-dilution MIC assay, C. albicans; format: cell-based
Protocol: (§1) Antimicrobial activity of compounds was evaluated in vitro on eight bacterial strains (Escherichia coli ATCC 25922 (ATCC = American Type Culture Collection, Manassas, VA, USA), Pseudomonas aeruginosa ATCC 9027, Proteus hauseri ATCC 13315, Klebsiella pneumoniae ATCC 10031, Staphylococcus aureus ATCC 6538, Bacillus subtilis ATCC 6633, Clostridium sporogenes ATCC 19404 and Micrococcus luteus ATCC 10240) and three fungi (Candida albicans ATCC 10231, Saccharomyces cerevisiae ATCC 9763 and Aspergillus brasiliensis ATCC 16404).
(§2) Micro-dilution assay was used for determination of tested compounds MIC. A serial dilution method in sterile 96-well microtitre plates was performed. Fresh Mueller–Hinton broth (for bacteria) and Sabouraud dextrose broth (for fungi) were used. In sterile physiological solution, suspensions containing 1.5 × 10^8 CFU mL^−1 for bacteria and 1.5 × 10^7 CFU mL^−1 for fungi were made (according to McFarland). One hundred microliters of broth were added to each well of the plate. Stock solutions of tested compounds were made in DMSO at concentration 10 mg mL^−1, and then 100 μL of the compound stock solution was added to each well of the first column. Double dilution was made in whole row for one tested compound, and repeated for all tested compounds in other rows. Amikacin served as positive control for bacteria, while nystatin served as positive control for fungi. The solvent (DMSO) was used as the negative control. Afterwards, each well was inoculated with 10 μL of microorganism suspension. After incubation, 24 h at 37 °C for bacteria and 48 h at 25 °C for fungi, results were read. The lowest concentration where no growth of microorganism was detected represented MIC.

[2] = system: Saccharomyces cerevisiae ATCC 9763; experiment: Micro-dilution MIC assay, S. cerevisiae; format: cell-based
Protocol: as §1, §2

[3] = system: Aspergillus brasiliensis ATCC 16404; experiment: Micro-dilution MIC assay, A. brasiliensis; format: cell-based; conditions: A. braziliensis, 48 h at 25 °C
Protocol: as §1, §2

[4] = system: SW620 (colorectal adenocarcinoma, metastatic); experiment: MTT assay, SW620; format: cell-based; conditions: Homo sapiens, SW-620, 72 h
Protocol: (§3) The tested compounds were dissolved in DMSO in five, 10-fold dilutions (0.01–100 µM). The cell lines HeLa (cervical carcinoma), SW620 (colorectal adenocarcinoma, metastatic), HepG2 (hepatocellular carcinoma), CFPAC-1 (ductal pancreatic adenocarcinoma), and WI38 (human lung fibroblast cell line), were cultured as monolayers and maintained in Dulbecco’s modified Eagle medium (DMEM) supplemented with 10% fetal bovine serum (FBS), 2 mM L-glutamine, 100 U mL^−1 penicillin and 100 μg mL^−1 streptomycin in a humidified atmosphere with 5% CO2 at 37 °C.
(§4) The MTT assay was used for evaluation of effects of tested compounds on viability of carcinoma and control cell lines. About 5000 cells per well were seeded onto a series of standard 96-well plates on day 0. Test agents were then added and incubated for further 72 h. Working dilutions of tested compounds were freshly prepared in the growth medium, on the day of testing. The solvent (DMSO) was also tested for eventual inhibitory activity by adjusting its concentration to be the same as in the working concentrations (DMSO concentration never exceeded 0.1%). After 72 h of incubation, the cell growth rate was evaluated by performing the MTT assay: experimentally determined absorbance values were transformed into a cell percentage growth (PG) using the formulas proposed by NIH and described previously. This method directly relies on control cells number at the day of assay because it compares the growth of treated cells with the growth of untreated cells in control wells on the same plate, the results are therefore a percentile difference from the calculated expected value.
(§5) If, however, all of the tested concentrations produce PGs exceeding the respective reference level of effect (e.g., PG value of 50) for a given cell line, the highest tested concentration is assigned as the default value (in the screening data report that default value is preceded by a “>” sign). Each test point was performed in quadruplicate in three individual experiments. The results were statistically analyzed (Analysis of variance (ANOVA), Tukey post-hoc test at p < 0.05). Finally, the effects of the tested substances were evaluated by plotting the mean percentage growth for each cell type in comparison to control on dose response graphs.

[5] = system: CFPAC-1 (ductal pancreatic adenocarcinoma); experiment: MTT assay, CFPAC-1; format: cell-based; conditions: Homo sapiens, 72 h
Protocol: as §3, §4, §5

[6] = system: HepG2 (hepatocellular carcinoma); experiment: MTT assay, HepG2; format: cell-based; conditions: Homo sapiens, 72 h
Protocol: as §3, §4, §5

[7] = system: HeLa (cervical carcinoma); experiment: MTT assay, HeLa; format: cell-based; conditions: Homo sapiens, 72 h
Protocol: as §3, §4, §5

[8] = MTT assay, WI38 healthy control; format: cell-based; conditions: WI38 human lung fibroblast cells, WI38 healthy control human fibroblast cell line
Protocol: as §3, §4, §5

phospho (Ser 473) Akt [9] = experiment: Western blot, pAkt in HeLa cells; format: cell-based, human; conditions: IC50 concentration
Protocol: (§6) Protein lysates were lysed in the buffer 50 mM Tris HCl (pH 8), 150 mM NaCl, 1% NP-40, 0.5% sodium deoxycholate, 0.1% SDS and protease and phosphatase inhibitor cocktail (Roche, Basel, Switzerland). A total of 50 μg of proteins were resolved on 10% SDS polyacrylamide gels by use of Mini-protean cell (Bio-Rad, Hercules, CA, USA). Membranes were incubated with primary antibodies against phospho (Tyr 1135) -IGF1 Receptor β (1:1000, rabbit mAb, Cell Signalling Technology, Danvers, MA, USA), phospho (Ser 473) Akt (1:1000, rabbit mAb, Cell Signalling Technology) and α tubulin (1:1000, mouse mAb, Sigma Aldrich) at 4 °C overnight. Secondary antibody linked to anti-mouse was used at 1:1000 (Dako, Santa Clara, CA, USA) and to anti-rabbit at 1:1000 (Dako). Signals were visualized by Western Lightening Chemiluminescence Reagent Plus Kit (Perkin Elmer, USA) on the ImageQuant LAS500 (GE Healthcare, Chicago, IL, USA). Signal intensities of particular bands were normalized with the intensity of the loading control α tubulin and compared in Quantity One software (Bio-Rad). The values are expressed as average value of three independent experiments ± standard error of the mean. Statistical analysis was performed in Microsoft Excel (Microsoft Corporation, Redmond, WA, USA) by using the ANOVA (p < 0.05).

phospho (Ser 473) Akt [10] = experiment: Western blot, pAkt in HepG2 cells; format: cell-based, human; conditions: IC50 concentration
Protocol: as §6

[11] = system: phospho (Tyr 1135) -IGF1 Receptor β; experiment: Western blot, IGF1 Receptor β activated form in HeLa cells; format: cell-based, human; conditions: IC50 concentration, 24 and 48 h treatments
Protocol: as §6

[12] = system: phospho (Tyr 1135) -IGF1 Receptor β; experiment: Western blot, IGF1 Receptor β activated form in HepG2 cells; format: cell-based, human; conditions: IC50 concentration
Protocol: as §6

[13] = system: Escherichia coli ATCC 25922; experiment: Micro-dilution MIC assay, E. coli; format: cell-based; conditions: ATCC25922, 24 h at 37 °C
Protocol: as §1, §2

[14] = system: Pseudomonas aeruginosa ATCC 9027; experiment: Micro-dilution MIC assay, P. aeruginosa; format: cell-based; conditions: ATCC9027, 24 h at 37 °C
Protocol: as §1, §2

[15] = system: Proteus hauseri ATCC 13315; experiment: Micro-dilution MIC assay, P. hauseri; format: cell-based; conditions: ATCC13315, 24 h at 37 °C
Protocol: as §1, §2

[16] = system: Klebsiella pneumoniae ATCC 10031; experiment: Micro-dilution MIC assay, K. pneumoniae; format: cell-based; conditions: ATCC10031, 24 h at 37 °C
Protocol: as §1, §2

[17] = system: Staphylococcus aureus ATCC 6538; experiment: Micro-dilution MIC assay, S. aureus; format: cell-based; conditions: ATCC6538, 24 h at 37 °C
Protocol: as §1, §2

[18] = system: Bacillus subtilis ATCC 6633; experiment: Micro-dilution MIC assay, B. subtilis; format: cell-based; conditions: ATCC6633, 24 h at 37 °C
Protocol: as §1, §2

[19] = system: Clostridium sporogenes ATCC 19404; experiment: Micro-dilution MIC assay, C. sporogenes; format: cell-based; conditions: ATCC19404, 24 h at 37 °C
Protocol: as §1, §2

[20] = system: Micrococcus luteus ATCC 10240; experiment: Micro-dilution MIC assay, M. luteus; format: cell-based; conditions: ATCC10240, 24 h at 37 °C
Protocol: as §1, §2

[21] = Candida albicans, ATCC10231, 48 h at 25 °C, read-out: MIC
[22] = Saccharomyces cerevisiae, ATCC9763, 48 h at 25 °C, read-out: MIC
[23] = Aspergillus brasiliensis, ATCC16404, read-out: MIC

Structure (SMILES): C[C@@H]1[C@H](O)[C@@H](C)/C=C/C=C/CC/C=C/C=C/C=C/C=C/C(O[C@H]2O[C@H](C)[C@@H](O)[C@H](N)[C@@H]2O)CC2O[C@](O)(CC(O)C(O)CCC(O)CC(O)CC(O)CC(=O)O[C@H]1C)CC(O)C2C(=O)O (stereo partly drawn) [Nystatin, nystatin]
MIC ([1]; 48 h at 25 °C): 2700 µM (≈ 2500 µg/mL)
MIC ([2]; 48 h at 25 °C): 1350 µM (≈ 1250 µg/mL)
MIC [3]: 1350 µM (≈ 1250 µg/mL)

IC50 [4]: 79.9 µM
IC50 [5]: 49.5 µM
IC50 [6]: 39.5 µM
IC50 [7]: 42.7 µM
IC50 at 72 h [8]: > 100 µM
Structure (SMILES): Cc1c(O)cc(C(C)C)c2oc(-c3ccc(Cl)cc3)nc12 [1e, 2-(4-Chlorophenyl)-4-methyl-7-isopropyl-1,3-benzoxazole-5-ol]
inhibition of Akt phosphorylation (western blot) (phospho (Ser 473) Akt [9]; 24 h and 48 h): weak, time and concentration dependent inhibition
inhibition of Akt phosphorylation (western blot) (phospho (Ser 473) Akt [10]; 24 h and 48 h): weak, time and concentration dependent inhibition
IGF1 Receptor β activated form expression (western blot) [11]: no significant changes
IGF1 Receptor β activated form expression (western blot) ([12]; 24 and 48 h treatments): no significant changes

Structure (SMILES): CC1=CC(=O)C(C(C)C)=CC1=O [TQ, Thymoquinone]
MIC [13]: 29.8 µM (≈ 4.9 µg/mL)
MIC [14]: 59.7 µM (≈ 9.8 µg/mL)
MIC [15]: 29.8 µM (≈ 4.9 µg/mL)
MIC [16]: 59.7 µM (≈ 9.8 µg/mL)
MIC [17]: 29.8 µM (≈ 4.9 µg/mL)
MIC [18]: 59.7 µM (≈ 9.8 µg/mL)
MIC [19]: 122 µM (≈ 20 µg/mL)
MIC [20]: 59.7 µM (≈ 9.8 µg/mL)
MIC [1, 21]: 3810 µM (≈ 626 µg/mL)
MIC [2, 22]: 1900 µM (≈ 312 µg/mL)
MIC [3, 23]: 3810 µM (≈ 626 µg/mL)
IC50 [4]: 40 µM
IC50 [5]: 48.3 µM
IC50 [6]: 24 µM
IC50 [7]: 28.9 µM
IC50 at 72 h [8]: 19.8 µM

Structure (SMILES): NCC[C@H](O)C(=O)N[C@@H]1C[C@H](N)[C@@H](O[C@H]2O[C@H](CN)[C@@H](O)[C@H](O)[C@H]2O)[C@H](O)[C@H]1O[C@H]1O[C@H](CO)[C@@H](O)[C@H](N)[C@H]1O [Amikacin, amikacin]
MIC [13]: 8.54 µM (≈ 5 µg/mL)
MIC [14]: 85.4 µM (≈ 50 µg/mL)
MIC [15]: 11.9 µM (≈ 7 µg/mL)
MIC [16]: 13.7 µM (≈ 8.03 µg/mL)
MIC [17]: 18.8 µM (≈ 11 µg/mL)
MIC [18]: 71.7 µM (≈ 42 µg/mL)
MIC [19]: 25.6 µM (≈ 15 µg/mL)
MIC [20]: 3.42 µM (≈ 2 µg/mL)

Structure (SMILES): CC1=C(N)C(=O)C(C(C)C)=CC1=O [ATQ, 3-Aminothymoquinone]
MIC [13]: 112 µM (≈ 20 µg/mL)
MIC [14]: 218 µM (≈ 39 µg/mL)
MIC [15]: 218 µM (≈ 39 µg/mL)
MIC [16]: 435 µM (≈ 78 µg/mL)
MIC [17]: 112 µM (≈ 20 µg/mL)
MIC [18]: 218 µM (≈ 39 µg/mL)
MIC [19]: 435 µM (≈ 78 µg/mL)
MIC [20]: 59.7 µM (≈ 10.7 µg/mL)
MIC [1, 21]: 1750 µM (≈ 314 µg/mL)
MIC [2, 22]: 220 µM (≈ 39.4 µg/mL)
MIC [3, 23]: 880 µM (≈ 158 µg/mL)
IC50 [4]: 25.8 µM
IC50 [5]: 30.9 µM
IC50 [6]: 8.26 µM
IC50 [7]: 15.7 µM
IC50 at 72 h [8]: 9.41 µM

IC50 [4]: 5.82 µM
IC50 [5]: 33.8 µM
IC50 [6]: 9.36 µM
IC50 [7]: 4.13 µM
IC50 at 72 h [8]: 5.54 µM
Structure (SMILES): Cc1c(O)cc(C(C)C)c2oc(-c3ccc(F)cc3)nc12 [1f, 2-(4-Fluorophenyl)-4-methyl-7-isopropyl-1,3-benzoxazole-5-ol]
pAkt levels (western blot) (phospho (Ser 473) Akt [9]; 48 h treatment): significantly decreased pAkt levels
inhibition of Akt phosphorylation (western blot) (phospho (Ser 473) Akt [10]; 24 h treatment): significant effect
pAkt signal (western blot) (phospho (Ser 473) Akt [10]; 48 h treatment): absence of pAkt signal
IGF1 Receptor β activated form expression (western blot) [11]: not detectable
IGF1 Receptor β activated form expression (western blot) ([12]; 24 h treatment): significantly decreased expression
IGF1 Receptor β activated form expression (western blot) ([12]; 48 h treatment): lack of signal
